Test results as given in patent publication US9283235B2, “Intermittent lowering of cortisol as treatment of clinical conditions associated with abnormal concentrations of cortisol in animals” (Stegram Pharmaceuticals Limited, priority 2001, dated 2016).
Where “and” joins values, the source holds several entries; their conditions need not be identical. Identical values can stand only once. Entries after “also recorded” stand apart in the source; their conditions may differ.

Key:
[1] = test system: dogs with hyperadrenocorticism (HAC); experiment: Tolerability and adverse events of trilostane in dogs with HAC; assay type: in vivo, dog
Method: (§1) Follow-up re-examinations took place after 10 days, 4 weeks, 3 mouths, 6 months and then every 6 months or within 4 weeks of adjusting the dosage. At these points, owners were carefully questioned about their perception of the dogs general well being, dissolution of clinical signs and potential side effects and a physical examination was performed. A full biochemical profile and an ACTH stimulation test were carried out. Further tests such as urinanalysis, urine culture, thoracic radiographs, etc. were done if deemed necessary. If the clinical sips of hyperadrenocorticism (polyuria/polydipsia, polyphagia, exercise intolerance, etc.) were still present and if the post-ACTH cortisol concentration remained above 220 nmol/l, trilostane was given twice daily at the same dosage.
Starting dose was between 1.8 and 20 mg/kg (mean: 6.0; SD 3.4 mg/kg). […] Two cross bred dogs with classical clinical signs and endocrine testing results of HAC were started on 6.5 and 7.5 mg/kg trilostane. […] One of the dogs also was hyperkalaernic and hyponatraemic (ratio:22.3). In both dogs no more trilostane was given thereafter and the dogs are free of clinical signs after 2.7 and 1.4 years. In the 9 dogs with adrenal tumours, which started on the same dosing protocol as the dogs with PDH, two had the dose halved, three stayed on the original dose while in 4 dogs the dose was increased up to 300% of the original dose.

serum cortisol = experiment: Canine serum cortisol over 24 hours pre and post trilostane; assay type: in vivo, dog; settings: for Canine serum cortisol, post: individual dogs; for Canine serum cortisol, post, Mean: mean of dogs
From the text: With this level of lowering there was relief of the symptoms of the Cushing's disease.

[2] = test system: dogs with hyperadrenocorticism (HAC); experiment: Prospective study of trilostane in dogs with spontaneous hyperadrenocorticism (HAC): clinical signs and survival; assay type: in vivo, dog
Method: Animals were entered into a prospective study and all animals required clinical and laboratory signs of hyperadrenocorticism as well as a final diagnosis of this disease. Data collected from each case included a clinical-historicy and physical examination, full blood count (CBC), serum biochemical profile, urinalysis and abdominal ultrasound. An ACTH-stimulation test was performed in all dogs. […] Dogs that had been treated for HAC other medication needed to be off these drugs for at least 10 days. Dogs with renal or hepatic insufficiency and dogs that received steroids were not included in the study.
Dogs with pituitary dependant hyperadrenocorticism or adrenal tumour which was unresectable or the owners were unwilling to have surgery performed, respectively, were treated with trilostane. The initial dose for dogs[…] was 30 mg once daily, dogs between 5 and 15 kg received 60 mg once daily and dogs>15 kg received 120 mg once daily. Dosages were adjusted based on clinical signs, blood biochemical parameters and an ACTH stimulation test.
as §1

[3] = test system: ACTH stimulation of the adrenal gland; experiment: ACTH stimulation test, serum cortisol in dogs; assay type: in vivo, dog
Method: Dogs were entered into the study sequentially over a period of 2-3.5 years Owners were informed about the experimental nature of the treatment and signed a consent form. The ACTH stimulation test was performed by collection of serum samples before and one hour after intravenous injection of ACTH (Synacthen, Alliance) at a dose of 0.125 mg for dogs weighing less than 15 kg, and 0.25 mg for dogs weighing greater than 15 kg. Cortisol concentration was measured by radioimmunoassay previously validated for dogs Blood for endogenous ACTH was collected into a cooled EDTA tube in ice, centrifuged immediately and the frozen at −20° C. Abdominal ultrasound was performed by an experienced board-certified radiologist and adrenal thickness was assessed as a single measurement made perpendicular to the long axis and was defined as the greatest dorso-ventral dimension.
Dogs with Cushing's disease were given an ACTH stimulation test at 12, 35 and 81 days (average) during a course of treatment with a single daily dose of trilostane of 5-20 mg/kg. […] Thus, trilostane has blunted ACTH stimulation of the adrenal gland.

[4] = Trilostane and ketotrilostane concentrations in dogs after a single daily dose; assay type: in vivo, dog
Method: Trilostane concentrations in the plasma of 6 dogs: day 0, phase 1 (one 60 mg capsule per day), study no. GB009/01-001.
Ketotrilostane concentrations in the plasma of 6 dogs: day 0, phase 1 (one 60 mg capsule per day), study no. GB009/01-001.
The significance of this is that the metabolite, ketotrilostane, is not retained in the body for an extended period of time.

[5] = test system: hypothalamic-pituitary-adrenal axis; experiment: Combined dexamethasone suppression / TRH stimulation test, serum cortisol in horses; assay type: in vivo, horse
Method: The ability of intermittent administration of Trilostane to block adrenal steroidogenesis was assessed in twenty horses (mean age 21, SD 5.7 years) with equine Cushing's disease. The combined dexamethasone suppression thyrotropin releasing hormone (TRH) stimulation test (17 horses) or TRH stimulation test (3 horses) was used as a standard test of function of the hypothalamic-pituitary-adrenal axis. Serum samples for cortisol analysis were collected via indwelling catheter at 4-hourly intervals over 24 hours on each of the test periods. These were before treatment then at 210 minutes (30 min after I mg i.v. TRH) and 22 hours after […] dexamethasone i.m. Affected horses were treated with 0.4 to 1 mg/kg, (mean 0.5 mg/kg) trilostane administered once daily in feed for a period of 30 days. After 30 days endocrine testing was repeated. Serum cortisol before and after treatment was compared by paired t-test.
This is similar to the post ACTH stimulation in the dogs. The adrenal gland is not responding to stimulation by pituitary hormone in the same way as before trilostane treatment.

[6] = Table 2, individual horses, after trilostane
[7] = Table 5, individual horses, after 30 days 0.4–1.0 mg/k
[8] = mean of horses, after 30 days trilostane

CC12CCC3C(CC[C@@]45O[C@@H]4C(=O)C(C#N)CC35C)C1CC[C@@H]2O (stereo partly drawn) [Trilostane, 2α-cyano-4α,5α-epoxyandrostan-17β-ol-3-one]
Biochemistry abnormalities during the course of therapy ([1]; all without clinical consequence): one episode of hyperkalaemia, two episodes of azotaemia, three episodes of hyperbilirubinaemia and two episodes of hypercalcaemia
Acute deaths ([1]; dog, in vivo): Three dogs died acutely at home
Tolerability ([1]; starting dose 1.8 to 20 mg/kg): generally well tolerated
Hyperkalaemia and hyponatraemia ([1]; trilostane stopped, both dogs euthanised): two dogs showed hyperkalaemia and hyponatraemia prior to clinical deterioration
ACTH stimulation test leading to stop of the drug ([1]; two cross bred dogs started on 6.5 and 7.5 mg/kg, after two and three months): both showed a flat-lined ACTH stimulation test
Serum cortisol lowering after daily dose, in words (serum cortisol; dogs with Cushing's disease): reduced significantly at 4 hrs
Canine serum cortisol, post (serum cortisol; 4 hrs after dose, Trilostane 5–10 mg/k over 4–21 days): 5 nmol/l (4×) and 62 nmol/l (2×) and 10 nmol/l and 60 nmol/l and 57 nmol/l and 63 nmol/l
Canine serum cortisol, post (serum cortisol; 8 hrs after dose): 5 nmol/l (4×) and 48 nmol/l and 171 nmol/l and 51 nmol/l and 262 nmol/l and 183 nmol/l and 315 nmol/l
Canine serum cortisol, post (serum cortisol; 12 hrs after dose): 5 nmol/l and 75 nmol/l and 83 nmol/l and 66 nmol/l (2×) and 158 nmol/l and 197 nmol/l and 143 nmol/l and 164 nmol/l and 318 nmol/l
Canine serum cortisol, post (serum cortisol; 19 hrs after dose): 52 nmol/l and 101 nmol/l and 92 nmol/l and 63 nmol/l and 85 nmol/l and 183 nmol/l (3×) and 139 nmol/l and 230 nmol/l
Canine serum cortisol, post (serum cortisol; 20 hrs after dose): 166 nmol/l and 105 nmol/l and 86 nmol/l and 97 nmol/l and 61 nmol/l and 154 nmol/l and 144 nmol/l (2×) and 108 nmol/l and 199 nmol/l
Canine serum cortisol, post (serum cortisol; 24 hrs after dose): 117 nmol/L and 109 nmol/L and 51 nmol/L and 74 nmol/L and 66 nmol/L and 171 nmol/L and 144 nmol/L and 131 nmol/L and 154 nmol/L and 246 nmol/L
Canine serum cortisol, post (serum cortisol; 28 hrs after dose): 147 nmol/L and 112 nmol/L and 75 nmol/L and 86 nmol/L and 53 nmol/L and 124 nmol/L and 190 nmol/L and 174 nmol/L and 246 nmol/L and 313 nmol/L
Canine serum cortisol, post, Mean (serum cortisol; 4 hrs): 33 nmol/L
Canine serum cortisol, post, Mean (serum cortisol; 8 hrs): 105 nmol/L
Canine serum cortisol, post, Mean (serum cortisol; 12 hrs): 130 nmol/L
Canine serum cortisol, post, Mean (serum cortisol; 19 hrs): 131 nmol/L
Canine serum cortisol, post, Mean (serum cortisol; 20 hrs): 126 nmol/L
Canine serum cortisol, post, Mean (serum cortisol; 24 hrs): 126 nmol/L
Canine serum cortisol, post, Mean (serum cortisol; 28 hrs): 152 nmol/L
Mean time to euthanasia or death, dogs with PDH ([2]; 22 dogs, SD 195.1, range 27-730 days): 230.9 days
Mean time since commencing treatment, dogs with PDH alive ([2]; 32 dogs, SD 285.2, range 105 to 1120 days): 417.3 days
Skin abnormalities ([2]; all dogs with skin abnormalities, 2-3 months after starting): marked improvement with normal hair growth
Dogs in which polyuria/polydipsia and polyphagia dissipated within the first 10 days of treatment ([2]; dog, in vivo): 29 dogs
Dogs in which polyuria/polydipsia and polyphagia dissipated within the first month of treatment ([2]; dog, in vivo): 14 dogs
Dogs with clinical signs improved but always some clinical signs of HAC ([2]; dog, in vivo): 6 dogs
Dogs with PDH alive ([2]; of 54 dogs with PDH): 32 dogs
Median survival, dogs with adrenal tumour that died or were euthanised ([2]; six dogs, SD 174.9 days): 260 days
% pre Trilostane Cortisol ([3]; 12 days of Trilostane treatment): −29.7%
Post ACTH stimulation test serum Cortisol ([3]; 12 days of Trilostane treatment (5-10 mg/k), 53 dogs): 249 nmol/L
% pre Trilostane Cortisol ([3]; 35 days of Trilostane treatment): −30.0%
Post ACTH stimulation test serum Cortisol ([3]; 35 days of Trilostane treatment (5-10 mg/k), 59 dogs): 231 nmol/L
% pre Trilostane Cortisol ([3]; 81 days of Trilostane treatment): −27.3%
Post ACTH stimulation test serum Cortisol ([3]; 81 days of Trilostane treatment (5-10 mg/k), 48 dogs): 214 nmol/L
Serum cortisol post ACTH as % of the original value ([3]; first re-examination, all dogs): less than 61%
Cortisol response to ACTH, in words ([3]; single daily dose 5-20 mg/kg, vs non-treatment controls): markedly reduced
Elimination of trilostane ([4]; after single daily dose): rapid elimination
Time of peak serum concentration of trilostane ([4]; after single daily dose (FIG. 1, one 60 mg capsule per day, 6 dogs)): 1 to 3 h
Serum cortisol Post-Treatment Base [5, 6]: 160 and 236 and 116 and 254 and 149 and 127 and 112 and 136 and 65 and 202 and 81 and 100 and 209 and 189 and 121 and 288
Serum cortisol Post-Treatment Post Dex [5, 6]: 170 and 149 and 118 and 113 (2×) and 82 and 81 (2×) and 163 and 50 and 101 and 138 and 47 and 1 and 153
Serum cortisol Post-Treatment Post TRH [5, 6]: 114 and 316 and 167 and 193 and 93 and 79 and 139 and 158 and 170 and 88 and 150 and 117 and 100 (2×) and 138 and 224
% change ([5]; Table 2, individual horses, pre vs post treatment): −60.5% and −69% and −8% and −84% and −82% and −16% and −5% and −27% and −233% and −50% and −1% and −10% and 18% and −57% and 1% and −15.8%
Different, pre-post: % TRH resp ([5]; Table 5, individual horses): 60% and 69% and 8% and 84% and 52% and 16% (2×) and 5% and 27% and 152% and 50% and 1% and 11% and −18% and 57% and 37%
Different, pre-post: Base ([5]; Table 5, individual horses): -33 nmol/L and -105 nmol/L and 15 nmol/L and -118 nmol/L and -124 nmol/L and -23 nmol/L and 20 nmol/L and -8 nmol/L and 8 nmol/L and 29 nmol/L and 5 nmol/L and 2 nmol/L and 65 nmol/L and -18 nmol/L and 22 nmol/L and -95 nmol/L
Different, pre-post: post Dex ([5]; Table 5, individual horses): −20 nmol/l and 12 nmol/l and 4 nmol/l and −10 nmol/l and 7 nmol/l (2×) and −16 nmol/l and −17 nmol/l and 107 nmol/l and 5 nmol/l and 15 nmol/l and −40 nmol/l and 23 nmol/l and 60 nmol/l and −67 nmol/l
Different, pre-post: post TRH ([5]; Table 5, individual horses): 53 nmol/L and -50 nmol/L and 32 nmol/L and 27 nmol/L and 49 nmol/L and 2 nmol/L and 31 nmol/L and 25 nmol/L and 66 nmol/L and 130 nmol/L and 10 nmol/L and 8 nmol/L and -19 nmol/L and 84 nmol/L and 71 nmol/L and -43 nmol/L
Cortisol post Trilostane Base [5, 7]: 160 nmol/L and 236 nmol/L and 116 nmol/L and 254 nmol/L and 149 nmol/L and 127 nmol/L and 112 nmol/L and 136 nmol/L and 65 nmol/L and 202 nmol/L and 81 nmol/L and 100 nmol/L and 209 nmol/L and 189 nmol/L and 121 nmol/L and 288 nmol/L
Cortisol post Trilostane post Dex [5, 7]: 170 nmol/l and 149 nmol/l and 118 nmol/l and 113 nmol/l (2×) and 82 nmol/l and 81 nmol/l (2×) and 163 nmol/l and 50 nmol/l and 101 nmol/l and 138 nmol/l and 47 nmol/l and 1 nmol/l and 153 nmol/l
Cortisol post Trilostane post TRH [5, 7]: 114 nmol/l and 316 nmol/l and 167 nmol/l and 193 nmol/l and 93 nmol/l and 79 nmol/l and 139 nmol/l and 158 nmol/l and 170 nmol/l and 88 nmol/l and 150 nmol/l and 117 nmol/l and 100 nmol/l (2×) and 138 nmol/l and 224 nmol/l
post Trilostane % TRH resp [5, 7]: −29% and 34% and 44% and −24% and −38% (2×) and 24% and 16% and 162% and −56% and 85% and 17% and −52% and −27% and −17% and −22%
Cortisol response to TRH / Dex pre vs post trilostane, in words ([5]; horses, single daily dose): lowering of the response to TRH; also recorded: decrease in cortisol response to TRH administration
Different, pre-post: % TRH resp, group mean ([5]; mean of horses): 39.2%
Different, pre-post: Base, group mean ([5]; mean of horses): -22 nmol/L
Different, pre-post: post Dex, group mean ([5]; mean of horses): 5 nmol/L
Different, pre-post: post TRH, group mean ([5]; mean of horses): 30 nmol/L
Cortisol post Trilostane post Dex, group mean ([5]; mean of horses, 22 hours post dexamethasone, after 30 days trilostane): 104 nmol/L
Cortisol post Trilostane Base, group mean [5, 8]: 159 nmol/L
Cortisol post Trilostane post TRH, group mean [5, 8]: 147 nmol/L
